Measurements as given in PMC8154566, “Scaffold-Hopping Strategy on a Series of Proteasome Inhibitors Led to a Preclinical Candidate for the Treatment of Visceral Leishmaniasis” (Journal of Medicinal Chemistry, 2021).
In brackets after ≈: the same amount, converted by molar mass. Like-named read-outs stand apart in the source and are kept apart here.

Columns and labels:
L. donovani amastigotes = assay: INMAC assay: intramacrophage L. donovani in differentiated THP-1 cells; assay type: cell-based, Leishmania donovani; conditions: for EC50 / IC50: Leishmania donovani; for IC50: THP-1, read-out: LdInMac pIC50 (converted); for loss of potency: INMAC, relative to compound 4; for LdInMac pIC50: supplementary csv
Procedure: (§1) Intramacrophage L. donovani Assay. This assay was conducted as previously described, except for […]

THP-1 cells = assay: THP-1 host cell read-out of the INMAC assay; assay type: cell-based; conditions: for EC50 / IC50: Homo sapiens
Procedure: as §1

[1] = Kinetic aqueous solubility by CLND; assay type: physicochemical
Procedure: We had successfully used these criteria in the hit to lead stage to identify compounds for in vivo proof-of-concept studies in another program, which subsequently led to the identification of preclinical candidate DDD853651/GSK3186899 active against CRK12.[7] […] A pharmacokinetic (PK) study was thus performed, dosed at 10 mg/kg po and 3 mg/kg iv. […] With the limited knowledge of the PK/PD drivers for the treatment of VL, we considered this to be a suitable profile for the progression of 4 into a previously reported mouse efficacy model of VL,[6],[7],[17],[18] where it was dosed twice daily at 50 mg/kg ip in order to further maximize exposure and give the best chance of achieving proof-of-concept.
(§2) Intramacrophage L. donovani Assay. This assay was conducted as previously described, except for compound exposure time, which was 96 h instead of 72 h.4
(§3) Intrinsic Clearance. This assay was conducted as previously described.5 Aqueous Solubility. This assay was conducted as previously described.6
(§4) FaSSIF Solublity. This assay was conducted as previously described.5,7
(§5) In vivo Mouse Efficacy Studies. In vivo studies were carried out as previously described, with minor modifications.7 Briefly: Control drug used was Miltefosine (30 mg/kg orally, twice daily for 5 days), vehicle used was 10% (v/v) dimethyl sulfoxide (DMSO), 40% polyethylene glycol 400, and 50% deionized water (10 Ml/kg orally, twice daily for 5 days) and mice were treated with test compound intraperitoneally (50 mg/kg twice daily for 5 days). 5
(§6) All regulated procedures on living animals were carried out under the authority of a project license issued by the Home Office under the Animals (Scientific Procedures) Act 1986, as amended in 2012 (and in compliance with EU Directive EU/2010/63). Infected animals had access to food and water ad libitum and were housed under a 12 hour light/dark photoperiod. Animals used in these experiments were female NMRI and Balb/c mice (Harlan, UK).
(§7) Test compound DDD01008714 was dosed orally (P.O.) at 10 mg free base/kg (dose volume 10 mL/kg; dose vehicle: 10% (vol/vol) dimethyl sulfoxide (DMSO), 40% polyethylene glycol 400 (PEG400) and 50% deionized water) to female NMRI mice (n = 3) or intravenously (I.V.) at 3 mg free base/kg (dose volume 5 mL/kg; dose vehicle: 10% (vol/vol) dimethyl sulfoxide (DMSO) and 90% Saline) to female Balb/c mice (n = 3). Blood samples (10 μL) where taken from the tail vein of […]

[2] = FaSSIF (fasted state simulated intestinal fluid) solubility; assay type: physicochemical
Procedure: as §2, §3, §4, §5, §6, §7

[3] = Mouse liver microsomal intrinsic clearance; assay type: in vitro ADME; conditions: for Mouse CLi: mouse liver microsomes; for Cli (mouse, ml/min/g): supplementary csv
Procedure: as §2, §3, §4, §5, §6, §7

[4] = THP-1, Table 6, at least three replicates, SD ≤0.4, read-out: INMAC pEC50 (converted)
[5] = THP-1, Table 6, read-out: THP-1 pEC50 (converted)
[6] = THP-1, supplementary csv, read-out: THP1 pIC50 (converted)
[7] = Table 6, kinetic, CLND, read-out: Aq. solubility
[8] = supplementary csv, read-out: Aqueous Solubility
[9] = THP-1, Table 2, at least three replicates, SD ≤0.4, read-out: INMAC (pEC50) (converted)
[10] = THP-1, Table 2, read-out: THP-1 (pEC50) (converted)
[11] = Table 2, kinetic, CLND, read-out: Aq. solubility
[12] = Table 5, at least three replicates, SD ≤0.4
[13] = Table 5, kinetic, CLND, read-out: Aq. solubility
[14] = THP-1, Table 5, at least three replicates, SD ≤0.4, read-out: INMAC pEC50 (converted)
[15] = THP-1, Table 5, read-out: THP-1 pEC50 (converted)

Row | Molecule | EC50 (L. donovani amastigotes; [4]) | EC50 (THP-1 cells; [5]) | IC50 (THP-1 cells; [6]) | solubility at 4 h ([2]; pH 6.5, Table 6) | solubility ([2]; supplementary csv) | Mouse CLi ([3]; Table 6) | Cli (mouse, ml/min/g) [3] | IC50 (L. donovani amastigotes) | INMAC pEC50 (L. donovani amastigotes; [12]) | Mouse CLi ([3]; Table 5) | other results
1 | O=C(Nc1ccc(F)c(-c2ccn3c(CN4CCOCC4)cnc3n2)c1)N1CCCC1 [Compound 32, N-(4-Fluoro-3-(3-(morpholinomethyl)imidazo[1,2-a]pyrimidin-7-yl)phenyl)pyrrolidine-1-carboxamide] | 10 µM | 63.1 µM | 63.1 µM | 728 µM (≈ 309 µg/mL) | 730 µM (≈ 310 µg/mL) | 16 mL/min/g | 16 mL/min/g |  |  |  | solubility [1, 7]: ≥ 348 µM
2 | CC(=O)N1CCN(c2cnc3nc(-c4cc(NC(=O)N5CCCC5)ccc4F)ccn23)CC1 [Compound 36, N-(3-(3-(4-Acetylpiperazin-1-yl)imidazo[1,2-a]pyrimidin-7-yl)-4-fluorophenyl)pyrrolidine-1-carboxamide] | > 50.1 µM | > 50.1 µM | > 50.1 µM | 1310 µM (≈ 591 µg/mL) | > 1000 µM | 1.5 mL/min/g | 1.5 mL/min/g | > 50.1 µM |  |  | solubility [1, 7]: ≥ 381 µM; solubility [1, 8]: ≥ 380 µM
3 | O=C(Nc1cccc(-c2cn3cc(N4CCOCC4)cnc3n2)c1)N1CCCC1 [Compound 6, N-(3-(6-Morpholinoimidazo[1,2-a]pyrimidin-2-yl)phenyl)pyrrolidine-1-carboxamide] |  |  | > 50.1 µM |  |  |  | 0.8 mL/min/g |  |  |  | loss of potency (L. donovani amastigotes): > 10 fold; EC50 (L. donovani amastigotes; [9]): 12.6 µM; EC50 (THP-1 cells; [10]): > 50.1 µM; Mouse CLi ([3]; Table 2): 0.8 mL/min/g
4 | O=C1CN(c2cnc3nc(-c4cc(NC(=O)N5CCCC5)ccc4F)ccn23)CCN1 [Compound 37, N-(4-Fluoro-3-(3-(3-oxopiperazin-1-yl)imidazo[1,2-a]pyrimidin-7-yl)phenyl)pyrrolidine-1-carboxamide] | > 50.1 µM | > 50.1 µM | > 50.1 µM | 815 µM (≈ 345 µg/mL) | 820 µM (≈ 347 µg/mL) | 1.1 mL/min/g | 1.1 mL/min/g | > 50.1 µM |  |  | 
5 | O=C(Nc1cccc(-c2cn3cc(N4CCOCC4)cnc3n2)n1)N1CCCC1 [Compound 9, N-(6-(6-Morpholinoimidazo[1,2-a]pyrimidin-2-yl)pyridin-2-yl)pyrrolidine-1-carboxamide] |  |  | > 50.1 µM |  | 81 µM (≈ 31.9 µg/mL) |  | <0.5 mL/min/g | > 50.1 µM |  |  | loss of potency (L. donovani amastigotes): > 10 fold; EC50 (L. donovani amastigotes; [9]): > 50.1 µM; EC50 (THP-1 cells; [10]): > 50.1 µM; solubility [1, 11]: ≥ 476 µM; solubility [1, 8]: ≥ 480 µM; solubility at 4 h ([2]; pH 6.5, Table 2): 80 µM (≈ 31.5 µg/mL); Mouse CLi ([3]; Table 2): <0.5 mL/min/g
6 | (S)-N-(4-Fluoro-3-(3-(3-methylmorpholino)imidazo[1,2-a]pyrimidin-7-yl)phenyl)pyrrolidine-1-carboxamide [Compound 40] |  |  |  |  |  | 1.8 mL/min/g | 1.8 mL/min/g |  |  |  | INMAC pEC50 (L. donovani amastigotes; Table 6, at least three replicates, SD ≤0.4): 6.0; LdInMac pIC50 (L. donovani amastigotes): 6; THP-1 pEC50 (THP-1 cells; Table 6): 4.3; THP1 pIC50 (THP-1 cells; supplementary csv): 4.3; solubility [1, 7]: 345 µM; Aqueous Solubility ([1]; supplementary csv): 350 µM; FaSSIF solubility ([2]; Table 6): 1,578 μM; FaSSIF solubility ([2]; supplementary csv): >1000 µM
7 | CC(C)c1cnc2nc(-c3cc(NC(=O)N4CCCC4)ccc3F)ccn12 [Compound 30, N-(4-Fluoro-3-(3-isopropylimidazo[1,2-a]pyrimidin-7-yl)phenyl)pyrrolidine-1-carboxamide] | 1.26 µM | 50.1 µM | 50.1 µM | 71 µM (≈ 26.1 µg/mL) | 70 µM (≈ 25.7 µg/mL) | 4.6 mL/min/g | 4.6 mL/min/g |  |  |  | solubility [1, 7]: 231 µM (≈ 84.9 µg/mL); solubility [1, 8]: 240 µM (≈ 88.2 µg/mL)
8 | COc1ccc(-c2cn3cc(N4CCOCC4)cnc3n2)cc1NC(=O)N1CCCC1 [Compound 8, N-(2-Methoxy-5-(6-morpholinoimidazo[1,2-a]pyrimidin-2-yl)phenyl)pyrrolidine-1-carboxamide] |  |  | > 50.1 µM |  | 270 µM (≈ 114 µg/mL) |  | 1.4 mL/min/g |  |  |  | loss of potency (L. donovani amastigotes): > 10 fold; EC50 (L. donovani amastigotes; [9]): 20 µM; EC50 (THP-1 cells; [10]): > 50.1 µM; solubility [1, 11]: ≥ 380 µM; solubility ([2]; Table 2): > 100 µM; solubility at 4 h ([2]; pH 6.5, Table 2): 265 µM (≈ 112 µg/mL); Mouse CLi ([3]; Table 2): 1.4 mL/min/g
9 | O=C(Nc1cccc(-c2nc3ccccc3o2)c1)c1ccco1 [Compound 14] |  |  | > 50.1 µM |  |  |  | 50 mL/min/g | > 50.1 µM |  |  | EC50 (L. donovani amastigotes; THP-1, Table 3, at least three replicates, SD ≤0.4, read-out: INMAC (pEC50) (converted)): > 50.1 µM; INMAC pEC50 (L. donovani amastigotes; Table 3, at least three replicates, SD ≤0.4): no activity; EC50 (THP-1 cells; THP-1, Table 3, read-out: THP-1 (pEC50) (converted)): > 50.1 µM; Mouse CLi ([3]; Table 3): 50 mL/min/g
10 | O=C(Nc1cccc(-c2cc3cc(-c4ccccc4)cnc3[nH]2)c1)N1CCCC1 [Compound 17, N-(3-(5-Phenyl-1H-pyrrolo[2,3-b]pyridin-2-yl)phenyl)pyrrolidine-1-carboxamide] |  |  | > 50.1 µM |  |  |  | 1.7 mL/min/g | > 50.1 µM | inactive | 1.7 mL/min/g | EC50 (L. donovani amastigotes; THP-1, read-out: INMAC pEC50 (converted)): > 50.1 µM; EC50 (THP-1 cells; THP-1, read-out: THP-1 pEC50 (converted)): > 50.1 µM; solubility [1, 13]: 3 µM (≈ 1.15 µg/mL)
11 | O=C(Nc1cccc(-c2cc3ncc(-c4ccccc4)cn3n2)c1)N1CCCC1 [Compound 16, N-(3-(6-Phenylpyrazolo[1,5-a]pyrimidin-2-yl)phenyl)pyrrolidine-1-carboxamide] |  |  | > 50.1 µM |  |  |  | 3.6 mL/min/g | > 50.1 µM | inactive | 3.6 mL/min/g | EC50 (L. donovani amastigotes; [14]): > 50.1 µM; EC50 (THP-1 cells; [15]): > 50.1 µM
12 | CN1CCOCC1c1cnc2nc(-c3cc(NC(=O)N4CCCC4)ccc3F)ccn12 (stereo not drawn) [Compound 33, N-(4-Fluoro-3-(3-(4-methylmorpholin-3-yl)imidazo[1,2-a]pyrimidin-7-yl)phenyl)pyrrolidine-1-carboxamide] | 5.01 µM | 50.1 µM | 50.1 µM | 2340 µM (≈ 994 µg/mL) | > 1000 µM | 3.8 mL/min/g | 3.8 mL/min/g |  |  |  | 
13 | O=C(Nc1ccc(F)c(-c2cc3nc(N4CCOCC4)cnc3[nH]2)c1)N1CCCC1 [Compound 18, N-(4-Fluoro-3-(2-morpholino-5H-pyrrolo[2,3-b]pyrazin-6-yl)phenyl)pyrrolidine-1-carboxamide] |  |  |  |  |  |  |  | > 50.1 µM | inactive | 10 mL/min/g | EC50 (L. donovani amastigotes; [14]): > 50.1 µM; IC50 (THP-1 cells; THP-1, read-out: THP1 pIC50 (converted)): > 50.1 µM; EC50 (THP-1 cells; [15]): > 50.1 µM; solubility [1, 13]: 135 µM (≈ 55.4 µg/mL); solubility [1, 8]: 10 µM (≈ 4.1 µg/mL)
14 | N-(3-(7-Phenylimidazo[1,2-b][1,2,4]triazin-3-yl)phenyl)pyrrolidine-1-carboxamide [Compound 27] |  |  |  |  |  |  | 3.3 mL/min/g |  | 5.9 | 3.3 mL/min/g | LdInMac pIC50 (L. donovani amastigotes): 5.9; THP-1 pEC50 (THP-1 cells; Table 5): <4.3; THP1 pIC50 (THP-1 cells; supplementary csv): <4.3; solubility ([2]; Table 5): 3.0 µM
15 | Cn1c(-c2cc(NC(=O)N3CCCC3)ccc2F)cc2cc(N3CCOCC3)cnc21 [Compound 19, N-[4-Fluoro-3-(1-methyl-5-morpholino-pyrrolo[2,3-b]pyridin-2-yl)phenyl]pyrrolidine-1-carboxamide] |  |  | > 50.1 µM |  |  |  | 2.4 mL/min/g | > 50.1 µM | inactive | 2.4 mL/min/g | EC50 (L. donovani amastigotes; [14]): > 50.1 µM; EC50 (THP-1 cells; [15]): > 50.1 µM
